Laboratory results published in PubChem BioAssay (NCI).
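Tested at 5 concentrations; 48 h exposure; 96-well plates; endpoints linearly interpolated, else capped at highest concentration. Definition used: TGI = concentration required for complete inhibition of growth.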

Assays:
Assay in all cases: NCI tumour cell line growth inhibition, 48 h
[1] = system: A498 renal
[2] = system: BT-549 breast
[3] = system: HCT-15 colon
[4] = system: IGROV1 ovarian
[5] = system: KM12 colon
[6] = system: MALME-3M melanoma
[7] = system: MDA-N
[8] = system: NCI-H522 lung
[9] = system: RPMI-8226 leukemia
[10] = system: RXF 393 renal
[11] = system: SF-295 CNS
[12] = system: SK-MEL-28 melanoma
[13] = system: SNB-75 CNS
[14] = system: SR leukemia
[15] = system: U251 CNS
[16] = system: UACC-257 melanoma

| Compound | TGI [1] | TGI [2] | TGI [3] | TGI [4] | TGI [5] | TGI [6] | TGI [7] | TGI [8] | TGI [9] | TGI [10] | TGI [11] | TGI [12] | TGI [13] | TGI [14] | TGI [15] | TGI [16] |
| --- | --- | --- | --- | --- | --- | --- | --- | --- | --- | --- | --- | --- | --- | --- | --- | --- |
| O=C(Nc1nn[nH]n1)c1nc(-c2ccccc2)cc(=O)[nH]1 | > 100 µM | > 100 µM | > 100 µM | > 100 µM | > 100 µM | > 100 µM | > 100 µM | > 100 µM | > 100 µM | > 100 µM | > 100 µM | > 100 µM | > 100 µM | > 100 µM | > 100 µM | > 100 µM |
| Cc1ccccc1NC(=O)CC(=O)NNC(Sc1ccccc1)c1cc(N=Nc2ccc(Br)cc2)ccc1O (centres undefined) | 7.96 µM | > 10 µM | > 10 µM | > 10 µM | > 10 µM | > 10 µM | > 10 µM | > 10 µM | 9.06 µM | > 10 µM | > 10 µM | > 10 µM | > 10 µM | 4.07 µM | > 10 µM | > 10 µM |
| NCCSCCC(=O)O | 99.5 µM | > 100 µM | > 100 µM | > 100 µM | > 100 µM | > 100 µM | > 100 µM | > 100 µM | > 92.3 µM | > 100 µM | > 92.3 µM | > 71.8 µM | > 92.6 µM | > 83.9 µM | > 67.4 µM | > 100 µM |
| CC(=O)OC[C@H]1On2nnnc2[C@H](OC(C)=O)[C@@H](OC(C)=O)[C@@H]1OC(C)=O | > 100 µM | > 100 µM | > 100 µM | > 100 µM | > 100 µM | > 100 µM | > 100 µM | > 100 µM | > 100 µM | > 100 µM | > 100 µM | > 100 µM | > 100 µM | > 100 µM | > 100 µM | > 100 µM |
| CCOc1cc2c(cc1O)C(O)C[C@@H]1[C@@H]2CC[C@]2(C)[C@@H](O)CC[C@@H]12 (some centres undefined) | 0.497 µM | > 100 µM | > 100 µM | > 100 µM | > 100 µM | > 100 µM | 0.326 µM | 0.95 µM | > 34 µM | 5.25 µM |  | > 100 µM | > 100 µM | > 100 µM |  | > 100 µM |
| O=C(O)c1ccccc1C1c2ccccc2Oc2ccccc21 | 82.1 µM | > 100 µM | > 100 µM | > 100 µM | > 100 µM | > 100 µM | > 100 µM | > 100 µM | > 100 µM | > 100 µM | > 100 µM | > 100 µM | 85.8 µM | > 100 µM | > 100 µM | > 100 µM |
| COc1cccc(C2c3cc4c(cc3OC(Nc3ccccc3)C2C)OCO4)c1O (centres undefined) | 23 µM | 38.8 µM | 48.4 µM | 35.5 µM | 24.8 µM | 35.3 µM | 6.98 µM | 20.6 µM | 43.8 µM | 31.4 µM | 18.7 µM | 27 µM | 26.8 µM | 7.25 µM | 23.2 µM | > 57.8 µM |
| O=c1c2nc(-c3ccccc3)oc2n(-c2ccccc2)c(=O)n1-c1ccccc1 | > 31.6 µM | > 46.4 µM | > 46.4 µM | 41 µM | > 46.4 µM | > 31.6 µM | > 46.4 µM | 39.1 µM | > 46.4 µM | 34.8 µM | 42.4 µM | > 100 µM | 31.2 µM | > 31.6 µM | 33.1 µM | > 46.4 µM |
| Oc1ccc(-c2nc3ccccc3s2)cc1 | > 100 µM | > 100 µM | > 100 µM | > 100 µM | 38.8 µM | > 100 µM | > 100 µM | 47.9 µM | > 100 µM | > 100 µM | > 100 µM | > 100 µM | > 100 µM | 87.7 µM | > 100 µM | > 100 µM |
| CCN(CC)C(=O)CCN1CC1 | > 10 µM | > 10 µM | > 10 µM | > 10 µM | > 10 µM | > 10 µM | > 10 µM | > 10 µM | > 10 µM | > 10 µM | > 10 µM | > 10 µM | > 10 µM | > 10 µM | > 10 µM | > 10 µM |
| Cc1ncc(COP(=O)(O)O)c(/C=C2\SC(=S)NC2=O)c1O | > 100 µM | > 100 µM | > 100 µM | > 100 µM | > 100 µM | > 100 µM | > 100 µM | > 100 µM | > 100 µM | > 100 µM | > 100 µM | > 100 µM | > 100 µM | > 100 µM | > 100 µM | > 100 µM |
| OC(NN=C1CCCC1)(C(F)(F)Cl)C(F)(F)Cl | > 10 µM | > 10 µM | > 10 µM | > 10 µM | > 10 µM | > 10 µM | > 10 µM | > 10 µM | > 10 µM | > 10 µM | > 10 µM | > 10 µM | > 10 µM | > 10 µM | > 10 µM | > 10 µM |
| CC(C)CCOC(=O)NC(Nc1ccc(F)cc1)(C(F)(F)F)C(F)(F)F | > 100 µM | > 100 µM | > 100 µM | > 100 µM | > 100 µM | > 100 µM | > 100 µM | 69.4 µM | > 100 µM | > 100 µM | > 100 µM | > 100 µM | > 100 µM | 25.4 µM | > 100 µM | > 100 µM |
| COc1nc(C#CC2CCCCC2)nc(OC)n1 | 37.2 µM | 14.6 µM | 5.97 µM | 14 µM | 17.9 µM | 6.49 µM | 25.2 µM | 6.33 µM | 6.53 µM | 19.1 µM | 18 µM | 32.8 µM | 27.6 µM | > 100 µM | 16.7 µM | 23.5 µM |
| CCOC(=O)CCC(C(=O)OCC)n1nnc2cc(Nc3c(C)[n+]([O-])c4cc(F)c(OCC)cc4[n+]3[O-])ccc21 (centres undefined) | > 100 µM | > 100 µM | > 100 µM | > 100 µM | > 100 µM | > 100 µM | > 100 µM | > 100 µM | > 100 µM | 38.7 µM | > 100 µM |  | 57.2 µM | > 100 µM | > 100 µM | > 100 µM |
| NC(N)=NC1C(O)C(O)C(O)C(N=C(N)N)C1O (centres undefined) | > 100 µM | > 100 µM | > 100 µM | > 100 µM | > 100 µM | > 100 µM | > 100 µM | > 100 µM | > 100 µM | > 100 µM | > 100 µM | > 100 µM | > 100 µM | > 100 µM | > 100 µM | > 100 µM |
| CCOC1=C(c2ccccc2)N2CCCCC2O1 (centres undefined) | 32.2 µM | 26.3 µM | 98.6 µM | > 51.4 µM | 14 µM | 20.7 µM | 21.7 µM | 13.4 µM | > 24 µM | 37.4 µM | 15.5 µM | > 63.2 µM | 28.7 µM | > 31.6 µM | > 100 µM | > 33.6 µM |
| Cc1cc(S(=O)(=O)/N=C(/NN)Nc2ccc(Cl)cc2)c(S)cc1Cl | 35.4 µM | 34.6 µM | 53 µM | 39.7 µM | 19.3 µM | 37.1 µM | 22.5 µM | 42.9 µM | > 100 µM | 78.8 µM |  | 60.3 µM | 28.8 µM | > 100 µM | 21.7 µM | 72.5 µM |
